In paper PMC7615677 (Science translational medicine, 2023):
Where two headings read alike, the source gives them in different places.

Key:
PDE3A = biological target: T1, PDE3A (Homo sapiens, UniProt Q14432); test: In vitro pharmacology panel (Eurofins); format: biochemical
T1 construct: Eurofins (contract assay)
Description: (§1) Listed values represent the percent change relative to the DMSO control activity. When an IC50 had to be determined, eight different concentrations were included. All values are the mean of assay readout duplicates.

COX1 = biological target: T2, COX1 (Homo sapiens, UniProt P23219); test: In vitro pharmacology panel (Eurofins); format: biochemical; settings: read-out: activity (% of DMSO control)
T2 construct: purchased Eurofins (Cerep/DiscoverX SafetyScreen44 in vitro pharmacology panel)
Description: as §1

Lck kinase = biological target: T3, Lck kinase (Homo sapiens, UniProt P06239); test: In vitro pharmacology panel (Eurofins); format: biochemical; settings: read-out: activity (% of DMSO control)
T3 construct: purchased Eurofins (Cerep/DiscoverX SafetyScreen44 in vitro pharmacology panel)
Description: as §1

PDE4D2 = biological target: T4, PDE4D2 (Homo sapiens, UniProt Q08499); test: In vitro pharmacology panel (Eurofins); format: biochemical
T4 construct: Eurofins (contract assay)
Description: as §1

acetylcholinesterase = biological target: T5, acetylcholinesterase (Homo sapiens, UniProt P22303); test: In vitro pharmacology panel (Eurofins); format: biochemical; settings: read-out: activity (% of DMSO control)
T5 construct: Eurofins (contract assay)
Description: as §1

COX2 = biological target: T6, COX2 (Homo sapiens, UniProt P35354); test: In vitro pharmacology panel (Eurofins); format: biochemical; settings: read-out: activity (% of DMSO control)
T6 construct: purchased Eurofins (Cerep/DiscoverX SafetyScreen44 in vitro pharmacology panel)
Description: as §1

L. infantum [1] = test: Chronic hamster infection model (VL); format: in vivo, golden hamsters
Description: Female golden hamsters (5 per treatment group) were infected through intracardiac administration of 2x10^7 L. infantum amastigotes obtained from the spleen of a heavily infected donor hamster. […] After 5-day treatment period, followed by a 10-day wash out period, animals were sacrificed, and parasites burden assessed in the three target organs (liver, spleen, and bone-marrow). For this assessment, organs of individual animals were weighed, except for bone-marrow thus only providing a semi-quantitative evaluation only. Impression smears were Giemsa-stained for microscopic evaluation of amastigote burden, expressed as LDU (= mean number of amastigotes/cell × organ weight in mg) and the results were expressed as a percentage reduction compared to the burdens in the control group (vehicle as placebo). For evaluating the presence of viable residual burden after treatment, a promastigote back-transformation assay was conducted. This consisted of the incubation at ambient temperature of aseptically collected pieces of spleen or liver tissue in 1 mL of promastigote back-transformation medium in 24-well plates. For the bone-marrow, resected femurs were flushed with 1 mL medium. The medium consists of HOMEM pH 6.0 prepared as described elsewhere ([5]) with 10% fetal bovine serum (Gibco), 2.5% penicillin/streptomycin and 1% gentamicin (Merck). […]

[2] = In vitro cytotoxicity assay; format: cell-based; settings: monkey, Vero monkey kidney epithelial cells
[3] = In vitro metabolism, cryopreserved hepatocytes; format: in vitro ADME, dog
Method: Cell viability was determined using trypan blue exclusion. The incubation was performed on a plate shaker (Heidolph Titrimax 100, 900 rpm) placed in a humidified incubator (37°C, 7.5% CO2) for 240 min. The reaction was initiated with the addition of compound with samples taken periodically and quenched with the addition of acetonitrile containing internal standards (metolazone and diazepam). Quenched samples were maintained on ice for approximately 20-30 min, centrifuged (for 5 min) and the supernatant analyzed by LC-MS.
In vitro intrinsic clearance (CLint, μL/min/mg or μL/min/10^6 cells) values were calculated from the apparent first order degradation rate constant divided by the microsome concentration or the hepatocyte cell number (10^6 viable cells/mL). In vitro CLint values were then divided by the fraction unbound in the in vitro test system (to give CLint,u) and scaled to in vivo values (mL/min/kg) using published physiological scaling factors ([28]). Blood clearance in each species was then calculated using the well-stirred model of hepatic extraction (equation 2) where Q is the hepatic blood flow and fu,blood is calculated from fu,plasma/B:P: [2] PredictedCLblood=Q x fu,blood x CLint,u/Q+fu,blood x CLint,u
Blood clearance values were converted to plasma clearance by multiplying by the B:P.

L. infantum [4] = test: PK/PD analysis of liver burden versus cumulative unbound AUC; format: in vivo, mice; settings: Mouse – L. infantum; estimated using the fitted parameters
Description: To determine the correlation between the pharmacokinetic (PK) and pharmacodynamic (PD) data, repeat dose profiles in mice and hamsters following single and twice daily dosing were simulated using the fitted parameters.
Other parameters were less well correlated to efficacy, presumably given that none reflect the cumulative exposure profile with an extended treatment regimen. […] Results for mice infected with L. donovani were similar to those for L. infantum (Table S15).

[5] = Human PK and dose prediction (IVIVE, allometry, GastroPlus PBPK); settings: plasma; for AUC: read-out: target cumulative total human plasma AUC
Description: Human plasma clearance was estimated by in vitro/in vivo extrapolation (IVIVE) of data from liver microsomes and allometry using the available in vivo preclinical data. In both cases, renal excretion of unchanged drug was assumed to be negligible (experimentally confirmed in the rat). […] Therefore, the “rule of exponents” was applied and the unbound clearance data were corrected for brain weight ([13]) as described previously ([14]).
The predicted clearance was input along with the data in Table S16 into a physiologically-based pharmacokinetic (PBPK) model (GastroPlus) to simulate human profiles under different dosing conditions. Given that there was no evidence of renal elimination in rats, it was assumed that clearance occurs solely by hepatic metabolism.
Human clearance was estimated using in vitro/in vivo extrapolation (IVIVE) of data obtained in liver microsomes and cryopreserved hepatocytes incorporating binding to microsomes and hepatocytes, plasma protein binding and the blood to plasma ratio. Scaling factors were as described previously ([12]) and liver blood flows were from Simcyp, assuming an average human body weight of 50 kg was assumed for the patient population ([12]).
The human dose predictions were based on PK and PD data in hamsters (best case scenario) and mice (worst case scenario) and unbound plasma concentrations that led to 95% efficacy. Human profiles were simulated at different doses and dosing regimens (qd or bid) over 10-14 days using GastroPlus (version 9.8, Simulations Plus, Inc., Lancaster, CA). The PBPK model used fasted physiological conditions and a 50 kg 30-year-old American male. The Berezhkovskiy perfusion limited model was used for Kp estimation ([30]). The estimated human plasma clearance was input directly into the model with the assumption that elimination occurred only by hepatic metabolism (consistent with data in rats).

[6] = In vitro cytotoxicity assay; format: cell-based; settings: mouse, primary mouse macrophages (PMM)
CaV1.2 = CaV1.2 (Homo sapiens, UniProt Q13936); test: in vitro
[7] = 10 µM, read-out: activity (% of DMSO control)

T1 sequence (Q14432 whole entry): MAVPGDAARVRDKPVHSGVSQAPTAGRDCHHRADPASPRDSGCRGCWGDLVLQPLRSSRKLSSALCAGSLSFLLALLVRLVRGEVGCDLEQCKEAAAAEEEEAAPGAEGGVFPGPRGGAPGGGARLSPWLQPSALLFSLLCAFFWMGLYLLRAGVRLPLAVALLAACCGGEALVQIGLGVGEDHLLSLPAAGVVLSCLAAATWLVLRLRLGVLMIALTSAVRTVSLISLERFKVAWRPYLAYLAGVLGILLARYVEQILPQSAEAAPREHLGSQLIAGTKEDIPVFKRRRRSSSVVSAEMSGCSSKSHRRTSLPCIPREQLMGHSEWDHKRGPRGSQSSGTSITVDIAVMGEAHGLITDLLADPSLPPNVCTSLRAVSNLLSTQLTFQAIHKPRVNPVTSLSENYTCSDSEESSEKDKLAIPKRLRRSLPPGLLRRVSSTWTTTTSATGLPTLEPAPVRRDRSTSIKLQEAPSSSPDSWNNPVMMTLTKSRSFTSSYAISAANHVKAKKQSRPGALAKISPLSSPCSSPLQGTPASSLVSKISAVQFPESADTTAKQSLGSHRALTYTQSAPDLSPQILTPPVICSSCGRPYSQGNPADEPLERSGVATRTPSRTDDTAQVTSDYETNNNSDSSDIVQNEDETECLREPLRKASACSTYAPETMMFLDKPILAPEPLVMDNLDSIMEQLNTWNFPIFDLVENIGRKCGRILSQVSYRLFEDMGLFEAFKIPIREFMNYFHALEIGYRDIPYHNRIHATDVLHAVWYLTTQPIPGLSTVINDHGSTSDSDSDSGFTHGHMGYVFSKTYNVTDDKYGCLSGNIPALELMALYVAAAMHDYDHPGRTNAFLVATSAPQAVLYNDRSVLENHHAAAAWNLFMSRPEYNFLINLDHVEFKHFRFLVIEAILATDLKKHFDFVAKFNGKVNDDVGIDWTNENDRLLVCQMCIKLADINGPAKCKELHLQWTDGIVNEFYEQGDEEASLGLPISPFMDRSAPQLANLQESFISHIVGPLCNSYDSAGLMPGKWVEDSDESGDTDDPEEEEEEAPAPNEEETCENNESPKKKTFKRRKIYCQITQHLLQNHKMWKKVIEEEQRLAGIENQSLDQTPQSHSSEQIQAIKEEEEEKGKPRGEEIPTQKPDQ
T4 sequence (Q08499 303-809 limits assumed): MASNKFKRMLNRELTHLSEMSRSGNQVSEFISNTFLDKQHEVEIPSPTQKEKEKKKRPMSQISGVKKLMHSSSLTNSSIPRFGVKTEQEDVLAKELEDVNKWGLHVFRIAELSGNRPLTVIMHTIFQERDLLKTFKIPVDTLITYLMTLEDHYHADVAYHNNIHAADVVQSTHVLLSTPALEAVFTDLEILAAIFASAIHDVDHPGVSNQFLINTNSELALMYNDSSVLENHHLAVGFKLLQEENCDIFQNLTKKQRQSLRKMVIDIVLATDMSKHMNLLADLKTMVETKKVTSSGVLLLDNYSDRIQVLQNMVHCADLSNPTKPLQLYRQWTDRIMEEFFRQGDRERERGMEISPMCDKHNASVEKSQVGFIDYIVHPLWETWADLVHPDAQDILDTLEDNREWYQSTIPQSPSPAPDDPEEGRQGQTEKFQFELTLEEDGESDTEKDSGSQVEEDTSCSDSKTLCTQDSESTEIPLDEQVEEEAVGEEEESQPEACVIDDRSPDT
T2 sequence (P23219 24-599): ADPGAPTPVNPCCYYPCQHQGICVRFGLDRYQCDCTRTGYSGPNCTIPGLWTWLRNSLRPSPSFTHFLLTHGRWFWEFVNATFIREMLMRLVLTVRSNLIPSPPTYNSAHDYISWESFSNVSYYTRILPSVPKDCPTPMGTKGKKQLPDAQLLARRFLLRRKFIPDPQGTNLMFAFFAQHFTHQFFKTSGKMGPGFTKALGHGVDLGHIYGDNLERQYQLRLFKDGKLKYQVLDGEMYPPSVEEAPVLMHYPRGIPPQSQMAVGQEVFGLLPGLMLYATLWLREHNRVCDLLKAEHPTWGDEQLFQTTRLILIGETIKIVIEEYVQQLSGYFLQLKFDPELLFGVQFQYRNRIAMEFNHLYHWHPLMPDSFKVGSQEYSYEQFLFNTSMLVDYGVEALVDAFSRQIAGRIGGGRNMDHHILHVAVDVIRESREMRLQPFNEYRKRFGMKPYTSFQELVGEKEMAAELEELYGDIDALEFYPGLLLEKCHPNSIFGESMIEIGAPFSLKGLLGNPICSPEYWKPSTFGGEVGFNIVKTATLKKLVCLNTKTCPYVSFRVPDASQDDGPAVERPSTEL
T5 sequence (P22303 32-614): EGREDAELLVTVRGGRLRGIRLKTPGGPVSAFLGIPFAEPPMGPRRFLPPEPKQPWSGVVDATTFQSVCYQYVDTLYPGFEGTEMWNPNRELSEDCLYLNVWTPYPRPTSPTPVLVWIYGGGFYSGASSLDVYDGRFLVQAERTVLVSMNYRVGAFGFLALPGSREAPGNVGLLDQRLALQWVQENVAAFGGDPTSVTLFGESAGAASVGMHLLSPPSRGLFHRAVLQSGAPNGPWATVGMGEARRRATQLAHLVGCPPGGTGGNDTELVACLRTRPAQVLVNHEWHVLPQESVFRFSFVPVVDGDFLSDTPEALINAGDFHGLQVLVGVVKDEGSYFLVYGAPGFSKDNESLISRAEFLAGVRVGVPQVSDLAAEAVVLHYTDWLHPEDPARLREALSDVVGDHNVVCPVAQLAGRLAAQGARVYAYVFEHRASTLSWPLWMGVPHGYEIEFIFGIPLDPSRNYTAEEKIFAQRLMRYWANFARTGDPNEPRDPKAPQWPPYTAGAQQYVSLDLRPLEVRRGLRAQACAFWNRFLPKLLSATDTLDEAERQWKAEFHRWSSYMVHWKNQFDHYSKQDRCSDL
T3 sequence (P06239 whole entry): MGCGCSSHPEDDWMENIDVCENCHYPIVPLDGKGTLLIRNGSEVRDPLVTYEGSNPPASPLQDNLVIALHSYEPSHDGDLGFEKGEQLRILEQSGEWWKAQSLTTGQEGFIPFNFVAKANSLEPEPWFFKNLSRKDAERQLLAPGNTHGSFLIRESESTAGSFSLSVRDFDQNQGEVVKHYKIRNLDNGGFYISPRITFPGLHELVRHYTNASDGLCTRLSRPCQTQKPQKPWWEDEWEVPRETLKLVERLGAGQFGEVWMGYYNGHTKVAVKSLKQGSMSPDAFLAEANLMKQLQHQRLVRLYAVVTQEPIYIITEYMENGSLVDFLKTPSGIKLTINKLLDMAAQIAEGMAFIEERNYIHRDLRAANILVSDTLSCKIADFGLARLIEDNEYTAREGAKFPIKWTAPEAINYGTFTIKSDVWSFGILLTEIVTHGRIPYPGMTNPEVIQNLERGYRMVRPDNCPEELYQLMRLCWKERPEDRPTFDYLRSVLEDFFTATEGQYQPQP
T6 sequence (P35354 18-604): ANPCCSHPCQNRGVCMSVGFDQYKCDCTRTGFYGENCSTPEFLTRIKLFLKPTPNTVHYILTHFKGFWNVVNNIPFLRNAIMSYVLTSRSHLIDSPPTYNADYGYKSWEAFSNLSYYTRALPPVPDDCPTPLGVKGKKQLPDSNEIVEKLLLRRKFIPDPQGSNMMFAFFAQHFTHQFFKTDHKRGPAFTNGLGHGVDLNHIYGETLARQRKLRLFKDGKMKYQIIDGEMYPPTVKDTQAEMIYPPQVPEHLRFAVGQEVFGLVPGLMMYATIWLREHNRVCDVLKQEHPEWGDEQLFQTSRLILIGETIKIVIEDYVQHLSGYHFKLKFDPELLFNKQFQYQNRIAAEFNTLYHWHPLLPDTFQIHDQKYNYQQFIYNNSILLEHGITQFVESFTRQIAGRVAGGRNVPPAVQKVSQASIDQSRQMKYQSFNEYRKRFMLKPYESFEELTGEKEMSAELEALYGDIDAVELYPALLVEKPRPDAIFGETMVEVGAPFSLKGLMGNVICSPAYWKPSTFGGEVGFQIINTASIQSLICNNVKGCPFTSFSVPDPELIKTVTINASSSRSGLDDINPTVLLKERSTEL

Work on `Cc1[nH]c2nc(N)nc(C)c2c1-c1ccc(C#N)c2c1OCO2` [DNDI-6174] yielded a remaining activity at 10 µM (PDE3A; [7]) of 30.1%, an IC50 (PDE3A; human PDE3A) of 3.36 µM and a remaining activity at 10 µM (COX1) of 115%. For the same compound, the remaining activity at 10 µM (Lck kinase) was 100%, the remaining activity at 10 µM (PDE4D2; [7]) was 27.1% and the IC50 (PDE4D2; human PDE4D2) was 6.67 µM. The remaining activity at 10 µM (acetylcholinesterase) was 96.8%, the remaining activity at 10 µM (COX2) was 137% and the “minimum efficacious daily dose” value (L. infantum [1]; given qd for 5 days) was 12.5 mg/kg. For the same compound, the “reduction of the parasite burden” value (L. infantum [1]; once daily dosing at and above 12.5 mg/kg, liver, spleen and bone-marrow) was “more than 99%”, the CC50 [2] was greater than 50 µM and the “Hepatocyte predicted in vivo CLplasma” value ([3]; Dog) was 0.30 mL/min/kg. For the same compound, the hepatocyte CLint at 0.5 µM ([3]; dog, cryopreserved hepatocytes) was 1 ± 0.27 µL/min/1e6 cells, the “unbound ED95” value (L. infantum [4]) was 27 and the AUC ([5]; male, oral, 27 ug) was 460 µg·h/mL. For the same compound, the AUC ([5]; 4 ug) was 60 µg·h/mL, the clearance ([5]; from in vitro predictions, read-out: expected plasma clearance in humans) was roughly 1 mL/min/kg and the CC50 [6] was greater than 64 µM. The inhibition at 100 µM (CaV1.2) was 43%.
